In patent publication US8362000B2, “Azetidinyl diamides as monoacylglycerol lipase inhibitors” (Janssen Pharmaceutica NV, priority 2009, dated 2013):
Substitutions are numbered along the chain they refer to. Read-outs that look alike come from different tables or passages of the source.

Tests used:
mutant MGL = target: T1, mutant MGL (Homo sapiens, UniProt Q99685, L169S/L176S); assay: MGL ThermoFluor assay - mutant; assay type: binding
T1 sequence (Q99685 1-303 L169S/L176S): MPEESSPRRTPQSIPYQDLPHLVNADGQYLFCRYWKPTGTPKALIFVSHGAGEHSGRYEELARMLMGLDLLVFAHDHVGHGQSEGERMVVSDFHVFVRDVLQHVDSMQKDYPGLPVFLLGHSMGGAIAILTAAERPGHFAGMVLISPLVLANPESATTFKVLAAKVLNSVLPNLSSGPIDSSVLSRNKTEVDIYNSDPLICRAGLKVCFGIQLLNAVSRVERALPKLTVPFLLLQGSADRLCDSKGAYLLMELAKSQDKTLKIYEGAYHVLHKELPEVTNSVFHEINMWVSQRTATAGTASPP

[1] = target: T2, purified wild type MGL (wt-MGLL 6H-11-313) (Homo sapiens, UniProt Q99685)
T2 sequence (Q99685 1-303): T1 sequence (Q99685 1-303 L169S/L176S) with S169L, S176L

[2] = compound concentration measured by qNMR, read-out: MGL mutant ThermoFluor qKd (using qNMR conc.)
[3] = ThermoFluor, compound concentration measured by qNMR, read-out: MGL mutant ThermoFluor qKd (using qNMR conc.)
[4] = ThermoFluor concentration-response, read-out: MGL mutant ThermoFluor Kd
[5] = ThermoFluor thermal stability binding assay, read-out: MGL mutant ThermoFluor Kd
[6] = ThermoFluor, compound concentration measured by qNMR, read-out: MGL mutant ThermoFluor qKd (μM) (using qNMR conc.)

IC50 [1] [µM]	Kd (mutant MGL; [4]) [µM]	SMILES	also measured
0.128	–	O=C(c1ccc2cnn(Cc3ccc(F)cc3)c2c1)N1CC(N2CCN(C(=O)c3nccs3)CC2)C1 [Cpd 1051, 1-(4-Fluorobenzyl)-6-({3-[4-(1,3-thiazol-2-ylcarbonyl)piperazin-1-yl]azetidin-1-yl}carbonyl)-1H-indazole]	Kd (mutant MGL; [2]): 0.175 µM
1.09	–	Cc1nc2cc(C(=O)N3CC(N4CCN(C(=O)c5nccs5)CC4)C3)ccc2s1 [Cpd 783]	Kd (mutant MGL; [3]): 0.732 µM
0.02	–	O=C(c1ccc2c(ccn2-c2ccncc2)c1)N1CC(N2CCN(C(=O)c3nccs3)CC2)C1 [Cpd 1127, 1-Pyridin-4-yl-5-({3-[4-(1,3-thiazol-2-ylcarbonyl)piperazin-1-yl]azetidin-1-yl}carbonyl)-1H-indole]	Kd (mutant MGL; [3]): 0.098 µM
2.97	–	Cc1nc2cc(Cl)cc(Cl)c2cc1C(=O)N1CC(N2CCN(C(=O)c3nccs3)CC2)C1 [Cpd 823]	Kd (mutant MGL; [3]): 1.25 µM
0.294	0.035	CC(C)n1c(C(F)(F)F)nc2cc(C(=O)N3CC(N4CCN(C(=O)c5nccs5)CC4)C3)ccc21 [Cpd 740]	–
5.26	–	O=C(c1ccc2c(c1)ncn2CC(F)(F)F)N1CC(N2CCN(C(=O)c3cscn3)CC2)C1 [Cpd 841]	Kd (mutant MGL; [2]): 0.917 µM
1.06	–	O=C(c1ccc(S(=O)(=O)N2CCCCC2)cc1)N1CC(N2CCN(C(=O)c3nccs3)CC2)C1 [Cpd 947]	Kd (mutant MGL; [3]): 0.653 µM
2.9	–	O=C(c1ccccc1)N1CCN(C2CN(C(=O)c3cccc4[nH]c(-c5ccc(Cl)cc5)nc34)C2)CC1 [Cpd 607]	Kd (mutant MGL; [5]): 1 µM
< 0.005	–	O=C(c1ccc2c(ccn2-c2ccc(F)cc2)c1)N1CC(N2CCN(C(=O)c3ncco3)CC2)C1 [Cpd 1426]	Kd (mutant MGL; [6]): 0.029 µM
> 16.7	–	O=C(c1cn2cc(C(F)(F)F)ccc2n1)N1CC(N2CCN(C(=O)c3nccs3)CC2)C1 [Cpd 1453]	Kd (mutant MGL; [6]): 10 µM
6.79	–	O=C(c1nccs1)N1CCN(C2CN(C(=O)c3cccc4[nH]c(Cc5ccccc5)nc34)C2)CC1 [Cpd 980]	Kd (mutant MGL; [5]): 5 µM
0.324	–	O=C(c1cnc2cc(Cl)c(Cl)cc2c1)N1CC(N2CCN(C(=O)c3nccs3)CC2)C1 [Cpd 743]	Kd (mutant MGL; [3]): 0.133 µM
0.135	0.005	O=C(c1nccs1)N1CCN(C2CN(C(=O)c3sc4cc(F)ccc4c3C3CC3)C2)CC1 [Cpd 714, 1-{1-[(3-Cyclopropyl-6-fluoro-1-benzothiophen-2-yl)carbonyl]azetidin-3-yl}-4-(1,3-thiazol-2-ylcarbonyl)piperazine]	–
5.53	2.13	O=C(c1ccc(N2CCS(=O)(=O)CC2)cc1)N1CC(N2CCN(C(=O)c3nccs3)CC2)C1 [Cpd 843]	–
0.103	0.001	CC1(C)C=C(c2ccc(C(=O)N3CC(N4CCN(C(=O)c5nccs5)CC4)C3)cc2)CC(C)(C)O1 [Cpd 706]	–
1.67	0.661	O=C(c1cc2ccc(C(F)(F)F)nc2[nH]1)N1CC(N2CCN(C(=O)c3nccs3)CC2)C1 [Cpd 799]	–
1	–	CN(c1ccccc1)S(=O)(=O)c1ccc(C(=O)N2CC(N3CCN(C(=O)c4nccs4)CC3)C2)cc1 [Cpd 946]	Kd (mutant MGL; [3]): 1.69 µM
4.24	–	Cc1nc2cc(C(=O)N3CC(N4CCN(C(=O)c5cscn5)CC4)C3)ccc2n1C1CCCCC1 [Cpd 832]	Kd (mutant MGL; [5]): 0.059 µM
2.32	2.45	Cc1c(C(=O)N2CC(N3CCN(C(=O)c4cscn4)CC3)C2)cccc1-c1ccccc1 [Cpd 1285]	–
8.49	–	O=C(c1ccc2[nH]ccc2c1)N1CC(N2CCN(C(=O)c3ccc[nH]3)CC2)C1 [Cpd 856]	Kd (mutant MGL; [6]): 0.855 µM
0.288	–	O=C(c1ccc2c(ccn2Cc2ccncc2)c1)N1CC(N2CCN(C(=O)c3nccs3)CC2)C1 [Cpd 1046]	Kd (mutant MGL; [2]): 0.064 µM

IC50 [1] [µM]	Kd (mutant MGL; [4]) [µM]	SMILES	also measured
1.47	2.11	Cc1c(C(=O)N2CC(N3CCN(C(=O)c4nccs4)CC3)C2)oc2c(F)cccc12 [Cpd 794]	–
0.096	0.017	Cc1c(C(=O)N2CCN(C3CN(C(=O)c4nccs4)C3)CC2)sc2cc(C(F)(F)F)ccc12 [Cpd 704]	–
0.017	–	O=C(c1ccc2c(-c3ccccc3)c(-c3ccccc3)[nH]c2c1)N1CC(N2CCN(C(=O)c3nccs3)CC2)C1 [Cpd 1119]	Kd (mutant MGL; [3]): 0.02 µM
0.171	–	Cc1nc2cc(C(=O)N3CC(N4CCN(C(=O)c5nccs5)CC4)C3)ccc2n1-c1ccc(F)c(F)c1 [Cpd 1206]	Kd (mutant MGL; [2]): 0.018 µM
< 0.005	–	O=C(c1ccc2c(cnn2-c2cccc(OC(F)(F)F)c2)c1)N1CC(N2CCN(C(=O)c3nccs3)CC2)C1 [Cpd 1374]	Kd (mutant MGL; [6]): 0.007 µM
0.449	3.04	O=C(c1cccc(-c2ccc(F)cc2F)c1)N1CC(N2CCN(C(=O)c3cscn3)CC2)C1 [Cpd 1239]	–
2.7	1	O=C(c1cc2cc(Cl)ccc2o1)N1CC(N2CCN(C(=O)c3nccs3)CC2)C1 [Cpd 818]	–
> 16.7	–	O=C(c1cc2ccc(C(F)(F)F)cc2[nH]1)N1CC(N2CCN(C(=O)c3ccns3)CC2)C1 [Cpd 1445]	Kd (mutant MGL; [5]): > 31.2 µM
4.95	–	O=C(c1ccc(-n2ccc(C(F)(F)F)n2)cc1)N1CC(N2CCN(C(=O)c3cscn3)CC2)C1 [Cpd 1302]	Kd (mutant MGL; [5]): 2.5 µM
0.29	–	O=C(c1ccc[nH]1)N1CCN(C2CN(C(=O)c3[nH]c4nc(C(F)(F)F)ccc4c3Br)C2)CC1 [Cpd 739]	Kd (mutant MGL; [3]): 0.265 µM
0.011	–	O=C(c1ccc(-c2cccc(C(F)(F)F)c2)cc1)N1CC(N2CCN(C(=O)c3cocn3)CC2)C1 [Cpd 1094]	Kd (mutant MGL; [6]): 0.012 µM
0.013	0.012	O=C(c1ccc2c(c1)[nH]c(=O)n2-c1ccc(C(F)(F)F)cc1)N1CC(N2CCN(C(=O)c3nccs3)CC2)C1 [Cpd 936]	–
0.387	–	Cc1c(C(=O)N2CC(N3CCN(C(=O)c4cscn4)CC3)C2)sc2nc(C(F)(F)F)ccc12 [Cpd 749]	Kd (mutant MGL; [6]): 0.036 µM
0.238	–	O=C(c1ccc(OCC(F)(F)F)cc1)N1CC(N2CCN(C(=O)c3nccs3)CC2)C1 [Cpd 730]	Kd (mutant MGL; [3]): 0.146 µM
2.7	–	O=C(c1cscn1)N1CCN(C2CN(C(=O)c3cccc4[nH]c(-c5ccc(Cl)cc5)nc34)C2)CC1 [Cpd 1290]	Kd (mutant MGL; [5]): 0.643 µM
0.581	0.199	COc1cccc2c(C)c(C(=O)N3CC(N4CCN(C(=O)c5nccs5)CC4)C3)[nH]c12 [Cpd 760]	–
6.03	–	O=C(c1cscn1)N1CCN(C2CN(C(=O)c3nn(-c4ccc(Cl)cc4Cl)c4c3CCCC4)C2)CC1 [Cpd 1304]	Kd (mutant MGL; [2]): 7.9 µM
10.2	–	O=C(c1cc2nc(C(F)(F)F)ccc2[nH]1)N1CC(N2CCN(C(=O)c3nccs3)CC2)C1 [Cpd 863]	Kd (mutant MGL; [3]): 4.37 µM
0.714	–	Cc1cc(-n2ccc3cc(C(=O)N4CC(N5CCN(C(=O)c6ccccc6)CC5)C4)ccc32)ccn1 [Cpd 630, 1-(2-Methylpyridin-4-yl)-5-({3-[4-(phenylcarbonyl)piperazin-1-yl]azetidin-1-yl}carbonyl)-1H-indole]	Kd (mutant MGL; [3]): 0.195 µM
2.49	2.11	O=C(c1ccccc1)N1CCN(C2CN(C(=O)c3ccc(F)c(Cc4ccc(C(F)(F)F)cc4)c3)C2)CC1 [Cpd 563]	–
0.025	–	CC(c1ccccc1)n1cc2cc(C(=O)N3CC(N4CCN(C(=O)c5nccs5)CC4)C3)ccc2n1 (stereo not drawn) [Cpd 1040, 2-(1-Phenylethyl)-5-({3-[4-(1,3-thiazol-2-ylcarbonyl)piperazin-1-yl]azetidin-1-yl}carbonyl)-2H-indazole]	Kd (mutant MGL; [2]): 0.014 µM
